Patent publication US20220265836A1, “COMPLEX, MEDICINE, THERAPEUTIC AGENT FOR CANCER, KIT AND CONJUGATE” (TOKYO INSTITUTE OF TECHNOLOGY, priority 2019, published 2022)
Marks after values point to notes of the source that are not given here.

Columns and labels:
[1] = Bonding force by alizarin red method, PEG-FPBA; format: binding; conditions: Ex 468 nm/Em 572 nm
Procedure: The bonding force was evaluated by the alizarin red method, which has been established as a method for quantifying the bonding force between boronic acid and the diol structure. The principle of the alizarin red method is briefly shown below by taking the method carried out in present Examples as an example. […]
Solution A, and Solution B or Solution C were mixed in various ratios and the fluorescence measurement was performed (Ex=468 nm, Em=572 nm) using a disposable cell. After substituting the obtained fluorescence intensity and the concentration of each FPBA into the following expression (1) and creating a calibration curve by the least squares method, the equilibrium constant K0 of the ARS-FPBA system was calculated from the slope of the calibration curve. Next, Solution B or Solution C was mixed with Solution D, E, F, or G containing each diol compound in various ratios in the combination of B+D, B+E, C+F, and C+G, and the fluorescence measurement was performed (Ex=468 nm, Em=572 nm) using a disposable cell. After substituting the obtained fluorescence intensity and the concentration of each diol compound into the following expression (2) and creating a calibration curve by the least squares method, the equilibrium constant K1 of each diol compound-BPA system was calculated from the slope of the calibration curve. […]

[2] = Bonding force by alizarin red method, PEG-P[Lys(FPBA)10]20; format: binding; conditions: for relative equilibrium constant with PEG10k-P[Lys(FPBA)10]20: alizarin red method, Ex 468 nm/Em 572 nm
Procedure: The bonding force was evaluated by the alizarin red method, which has been established as a method for quantifying the bonding force between boronic acid and the diol structure. The principle of the alizarin red method is briefly shown below by taking the method carried out in present Examples as an example.
[Final Concentrations of GFP, TA, PEG-FPBA, and PEG-P[Lys(FPBA)10]20] • Solution A: ARS (9.0×10^−6 M) • Solution B: ARS (9.0×10^−6 M)+PEG-FPBA (FPBA concentration: 2.0×10^−3 M) • Solution C: ARS (9.0×10^−6 M)+PEG-P[Lys(FPBA)10]20 (FPBA concentration: 2.0×10^−3 M) • Solution D: ARS (9.0×10^−6 M)+PEG-FPBA (FPBA concentration: 2.0×10^−3 M)+tannic acid (diol concentration=5.0×10^−4 M) • Solution E: ARS (9.0×10^−6 M)+PEG-FPBA (2.0×10^−3 M)+gallic acid (diol concentration=5.0×10^−4 M) • Solution F: ARS (9.0×10^−6 M)+PEG-P[Lys(FPBA)10]20 (FPBA concentration: 2.0×10^−3 M)+tannic acid (diol concentration=5.0×10^−4 M) • Solution G: ARS (9.0×10^−6 M)+PEG-P[Lys(FPBA)10]20 (FPBA concentration: 2.0×10^−3 M)+gallic acid (diol concentration=5.0×10^−4 M)
Solution A, and Solution B or Solution C were mixed in various ratios and the fluorescence measurement was performed (Ex=468 nm, Em=572 nm) using a disposable cell. After substituting the obtained fluorescence intensity and the concentration of each FPBA into the following expression (1) and creating a calibration curve by the least squares method, the equilibrium constant K0 of the ARS-FPBA system was calculated from the slope of the calibration curve. Next, Solution B or Solution C was mixed with Solution D, E, F, or G containing each diol compound in various ratios in the combination of B+D, B+E, C+F, and C+G, and the fluorescence measurement was performed (Ex=468 nm, Em=572 nm) using a disposable cell. After substituting the obtained fluorescence intensity and the concentration of each diol compound into the following expression (2) and creating a calibration curve by the least squares method, the equilibrium constant K1 of each diol compound-BPA system was calculated from the slope of the calibration curve. The equilibrium constant obtained from the calibration curve is shown in Table 2 as a relative equilibrium constant.
[formula] • [L0]=Concentration of FPBA added • [S0]=Concentration of diol added • [I0]=Concentration of ARS
ΔIf=Ifs−Ifa • ΔIfc=Reciprocal of intercept of graph created in ARS-FPBA system • Ifs=Fluorescence intensity of ARS-FPBA • Ifa=Fluorescence intensity of solution A • K0=Equilibrium constant of ARS-FPBA • Kf=Equilibrium constant of diol compound—equilibrium constant of FPBA

[3] = Formation of ternary complex encapsulating various substances: particle diameter by DLS or FCS; format: physicochemical; conditions: for Particle diameter of encapsulated substance: substance alone
Procedure: Ternary complexes were formed using not only the GFP protein but also a small molecule medicine, a peptide, an adeno-associated virus, an inorganic particle, a nucleic acid, and the like, and the particle diameter change was measured. As the measurement method, dynamic light scattering (DLS) or fluorescence correlation spectroscopy (FCS) was used.
Temperature: 25° C., measurement time: 10 seconds, number of integrations: 10 times
The method for measuring dynamic light scattering is as follows. Dynamic Light Scattering (DLS Zetasizer Nano ZS (manufactured by Malvern Instruments) was used to carry out DLS measurement at a detection angle of […] and a temperature of 25° C. A He—Ne laser (633 nm) was used as the incident beam. Each complex solution was added to a small glass cuvette (capacity: 12 μL, ZEN2112, manufactured by Malvern Instruments). The data obtained from the decay rate in the photon correlation function was analyzed by the Cumulant method, and then the hydrodynamic diameter (the arithmetic mean diameter based on the number of complexes) of each complex was calculated by the above Einstein-Stokes equation. […]
The pitavastatin solution and the tannic acid solution were mixed to adjust a pitavastatin/TA solution. Then, PEG-P[Lys(FPBA)10]20 was added to the pitavastatin/TA solution to adjust a pitavastatin/TA/PEG-P[Lys(FPBA)10]20 (a pitavastatin ternary complex) solution. […]

[4] = Pharmacokinetics of rose bengal ternary complex (blood retention); format: in vivo, mouse; conditions: 3 hours after intravenous administration, plasma fluorescence
Procedure: [Final Concentrations of rose bengal, TA, and PEG-P[Lys(FPBA)10]20] • Rose bengal: 0.1 mg/mL • Tannic acid: 1.0 mg/mL • PEG-P[Lys(FBPA)10]20: 16.5 mg/mL
The rose bengal solution and the tannic acid solution were mixed to adjust a rose bengal/TA solution. Then, PEG-P[Lys(FPBA)10]20 was added to the rose bengal/TA solution to adjust a rose bengal solution, a rose bengal/TA complex solution, and a rose bengal/TA/PEG-P[Lys(FPBA)10]20 (a rose bengal ternary complex) solution.
200 μl of the prepared solution described above was intravenously administered to the tail vein of the model mouse. One to three hours after the sample administration, dissection was carried out to recover blood, which was subsequently subjected to centrifugation at 5,000 g×10 minutes at 20° C. to recover 100 μl of a plasma component, and 700 μl of Passive Lysis Buffer was added thereto. Then, the fluorescence intensities (Ex/Em: 520 nm/570 nm) of the plasma component and the administered sample were measured with Spark to evaluate the blood retention. In the figure, rose bengal/TA/PEG-P[Lys(FPBA)10]20 is denoted by a rose bengal/TA/polymer.

O=C(O)c1cc(O)c(O)c(O)c1 [Gallic acid]
relative equilibrium constant with PEG-FPBA [1]: 2,030 | bonding constant with PEG-P[Lys(FPBA)10]20 as compared with PEG-FPBA [2]: 2.5 times | relative equilibrium constant with PEG10k-P[Lys(FPBA)10]20 [2]: 5,112

C=Cc1c(C)c2cc3nc(c(CC(=O)O)c4[nH]c(cc5nc(cc1[nH]2)C(C)=C5CC)c(C)c4C(=O)O)[C@@H](CCC(=O)O)[C@@H]3C [Chlorine 6, Chlorin e6]
Particle diameter of encapsulated substance [3]: 1.2 nm

O=C(O)c1c(Cl)c(Cl)c(Cl)c(Cl)c1-c1c2cc(I)c(=O)c(I)c-2oc2c(I)c(O)c(I)cc12 [Rose bengal]
Particle diameter of encapsulated substance [3]: 0.7 nm | concentration in blood [4]: about 0.22%

Gelonin
Particle diameter of encapsulated substance [3]: 4.1 nm

Bleomycin sulfate
Particle diameter of encapsulated substance [3]: 0.6 nm

O=C(OC[C@H]1O[C@@H](OC(=O)c2cc(O)c(O)c(OC(=O)c3cc(O)c(O)c(O)c3)c2)[C@H](OC(=O)c2cc(O)c(O)c(OC(=O)c3cc(O)c(O)c(O)c3)c2)[C@@H](OC(=O)c2cc(O)c(O)c(OC(=O)c3cc(O)c(O)c(O)c3)c2)[C@@H]1OC(=O)c1cc(O)c(O)c(OC(=O)c2cc(O)c(O)c(O)c2)c1)c1cc(O)c(O)c(OC(=O)c2cc(O)c(O)c(O)c2)c1 [Tannic acid (TA), Tannic acid]
relative equilibrium constant with PEG-FPBA [1]: 1,877 | bonding constant with PEG-P[Lys(FPBA)10]20 as compared with PEG-FPBA [2]: 5 times | relative equilibrium constant with PEG10k-P[Lys(FPBA)10]20 [2]: 8,827

O=C([O-])C[C@H](O)C[C@H](O)/C=C/c1c(C2CC2)nc2ccccc2c1-c1ccc(F)cc1.O=C([O-])C[C@H](O)C[C@H](O)/C=C/c1c(C2CC2)nc2ccccc2c1-c1ccc(F)cc1.[Ca+2] [Pitavastatin calcium]
Particle diameter of encapsulated substance [3]: Aggregated | Particle diameter of encapsulated substance ([3]; listed as pitavastatin): 4586 nm

β-D-galactosidase: β-D-galactosidase (βGal): Mw 540 kDa, enzyme
Particle diameter of encapsulated substance [3]: 13.9 nm | Particle diameter of complex ([3]; ternary complex substance/TA/PEG-P[Lys(FPBA)10]20, dynamic light scattering method): 42.8* nm | Polydiversity (PDI) ([3]; ternary complex, dynamic light scattering method): 0.18
